What was measured:
B-raf = settings: cited from earlier work
CHK1 = test: Western blotting, CHK1 level / CHK activity after ganetespib (FIG. 1); type: cell-based, human
Description: (§1) The LNCaP, 22Rv1, DU145 and PC3 human prostate cancer cell lines were all purchased from the American Type Culture Collection (Manassas, Va., USA). Cells were maintained and cultured according to standard techniques at 37° C. in 5% (v/v) CO2 using culture medium recommended by the supplier. All primary antibodies were purchased from Cell Signaling Technology (Beverly, Mass., USA) with the exception of RAF1 (Santa Cruz Biotechnology, Santa Cruz, Calif., USA), p-EGFR (Tyr1068) (Invitrogen, Carlsbad, Calif., USA) and actin (GE Healthcare, UK). The Hsp90 inhibitors ganetespib and 17-AAG were synthesized at Synta Pharmaceuticals Corp.
(§2) Prostate cancer cell lines were lysed in RIPA buffer (Cell Signaling Technology, Beverly, Mass. USA). Lysates were clarified by centrifugation and equal amounts of protein resolved by SDS-PAGE before transfer to nitrocellulose membranes. Membranes were blocked with 5% skim milk in TBS with 0.5% Tween and immunoblotted with indicated antibodies. Antigen-antibody complexes were visualized using an Odyssey system (LI-COR, Lincoln, Nebr., USA).

CDK1 = test: Western blotting, CDK1 level after ganetespib (FIG. 1); type: cell-based, human
Description: as §1, §2

SMILES	degradation of B-raf (B-raf; cancer cells treated with 17AAG)	sensitivity of B-raf mutants E586K and L597V to degradation (B-raf; cells treated with 17AAG)	rate of B-raf degradation, V600E mutant vs wild type (B-raf; melanoma cell line A375 (V600E) vs CHL cells (wild type B-raf))	rate of degradation of B-raf mutants V600D, G469A, G469E, G596R, G466V, G594V (B-raf; transvected into COS cells)	disruption of CHK activity by inhibition of Hsp90 activity (CHK1)	effect on stability of the DNA damage checkpoint CHK1 (CHK1; FIG. 1)	effect on stability of the master cell cycle regulator CDK1 (CDK1)
C=CCNC1=C2C[C@@H](C)C[C@H](OC)[C@H](O)[C@@H](C)/C=C(\C)[C@H](OC(N)=O)[C@@H](OC)/C=C\C=C(/C)C(=O)NC(=CC1=O)C2=O [Compound 17AAG]	stimulate the degradation of B-raf	not sensitive to degradation	degraded more rapidly than in CHL cells	degraded more rapidly than wild type B-raf			
CC(C)c1cc(-c2nnc(O)n2-c2ccc3c(ccn3C)c2)c(O)cc1O [ganetespib, 3-(2,4-DIHYDROXY- 5-ISOPROPYL- PHENYL)-4-(1- METHYL-INDOL- 5-YL)-5- HYDROXY- [1,2,4]TRIAZOLE]					highly effective in disrupting CHK activity	destabilizes	destabilizes
